# Measurements published in patent US20130072543A1, “Compounds and Compositions for Nucleic Acid Formulation and Delivery” (ARROWHEAD RESEARCH CORPORATION, priority 2011, published 2013).
# Strand notation (5' to 3'): a small letter for the sugar, then the base; units joined by * are phosphorothioate-linked, units joined directly phosphodiester-linked; [ ] holds rarer units or linkages, { } end groups; capitals alone tell only the bases. d = 2'-deoxy (DNA); m = 2'-O-methyl; r = 2'-OH (RNA)
# Test system: Kif11 mRNA
# Assay: In vivo administration of LNPs to mice, H&E histopathology of aberrant mitotic figures
# Conditions: mouse bone marrow, 5 consecutive high power (400×) microscopic fields per sample
# Method: In Vivo Administration. Selected LNPs were dosed IV via tail vein injection on three successive days and the indicated tissues (see FIG. 11-13) were harvested and fixed in 10% zinc-formalin overnight, processed, paraffin embedded, sectioned at 5 μm, and stained with hematoxylin and eosin for histopathology assessment. In vivo delivery and Kif11 knockdown was shown with an increase in aberrant mitotic figures as a surrogate for Kif11 mRNA loss in murine liver, spleen and bone marrow tissue. Mitotic figures refer to chromosome aggregation during mitosis.
substance,measurement,value
"LUC: control siRNA targeting Firefly Luciferase mRNA, 21 nucleotides, SEQ ID 3 and 4 (chain 1 mCmUmUrAmCrGmCmUrGrArGmUrAmCmUmUmCrGrAdT*dT; chain 2 rUrCrGrArArGmUrArCrUmCrArGrCrGmUrArArGdT*dT; listed as Photinus pyralis)",Average no. of aberrant mitotic figures,0
